These results are taken from US10039741B2, “Use of delta tocopherol for the treatment of lysosomal storage disorders” (The United States of America, as represented by the …, priority 2010, dated 2018).

Series [1] deals with baby hamster kidney cells. The experiment in a line: Cholesterol efflux. The class given is cell-based.
In another series the test system is NPC cells. The class given is cell-based, human. On the procedure: We disclose that the compound's cytotoxicity could interfere with these cell-based assays that often appeared as the false positives for cholesterol reduction and lysosome size decrease. […] Although the tocotrienol effect on these NPCD cells were observed, they were more toxic in our assays and the additional compound purification (to 99%).
To measure the cytotoxicity of compounds, an ATP content assay was used with a commercial assay kit (ATP-Lite, PerkinElmer). Cells were seeded in white solid 1536-well plates and treated with compounds same as in the cholesterol oxidase assay describe above. After 3-day compound treatment, 3 μl/well detection mixture (prepared according to the manufacturer's instructions) was added to each well and the plates were incubated for 10 min at room temperature followed by a measurement using a Viewlux plate reader in a luminescence mode. The buffer in the detection mixture lyses cells and releases cellular ATP which reacts with luciferin in the presence of luciferase to produce light. The luminescence signal reduces if the cells are killed by the compound during the 3-day treatment.

The next series relates to NPC fibroblasts. Briefly: Lipid measurement by mass spectrometry (GC/MS). The class given is cell-based, human. The settings on record: 80 μM α-tocopherol or 40 uM δ-tocopherol for 5 days. On the procedure: (§1) Effects of δ-tocopherol and α-tocopherols on (FIG. 4A) free cholesterol, (FIG. 4B) cholesterol ester and (FIG. 4C) sphingomyelin in NPC cells. NPC or WT cells were treated with DMSO, 80 μM α-tocopherol or 40 uM δ-tocopherol for 5 days. Cell pellets were collected and extracted for lipids. FC EC and sphingomyelin levels were measured by GC/MS. (FIG. 4D) Effects of δ-tocopherols and α-tocopherols on cholesterol efflux.
(§2) Cell pellets were collected from 100-mm dishes and washed once with 10 ml PBS. Proteins were assayed using the BCA kit (Sigma-Aldrich) and lipids were extracted by modified Bligh and Dyer procedure (29) from the cells. Internal standards were added based on protein concentration that included N12:0 sphingomyelin, D7-cholesterol, 17:0 cholesterol ester (Avanti Polar Lipids, Inc). A portion of the lipid extract was used for detection of sphingomyelins using direct infusion mass spectrometric assay with lithium hydroxide for facilitating ionization and the rest was used to convert cholesterol and its ester into acetate by derivatization. The derivatization was performed by treating the dried crude lipid extract with solutions of 1 M acetic acid with 1 M DMAP in chloroform and 1 M EDC in chloroform at 50° C. for 2 hours. The derivatized product was extracted with hexane and analyzed by direct infusion mass spectrometric assay with 5% ammonium hydroxide for facilitating ionization.
(§3) A triple-quadrupole mass spectrometer equipped with an electrospray was used for analysis of lipids in positive mode. Sphingomyelins, cholesterol and cholesterol esters were detected by neutral loss scan of 213 (collision energy: 50 V), neutral loss scan of 77 (collision energy: 14 V) and precursor ion scan of m/z 369 (collision energy: 14 V) respectively. Data processing of mass spectrometric analyses including ion peak selection, data transferring, peak intensity comparison and quantitation was conducted using self-programmed Microsoft Excel macros (30).

The next series relates to wild type cells. Briefly: Lipid measurement by mass spectrometry (GC/MS). It is filed as cell-based, human. The method, then:
as §1, §2, §3

The subject of series [2] is Wolman disease fibroblasts. Briefly: Lysotracker staining assay. The class given is cell-based, human.
The test system of series [3] is Tay-Sachs disease fibroblasts. The experiment in a line: Lysotracker staining assay. The class given is cell-based, human.
[4] abbreviates: wild type cells, 80 μM α-tocopherol or 40 uM δ-tocopherol for 5 days.

Molecules are shown by their SMILES.

Regarding `Cc1cc(O)cc2c1O[C@](C)(CCC[C@H](C)CCC[C@H](C)CCCC(C)C)CC2` [δ-tocopherol], the cholesterol efflux entry in series [1] is “significantly increased”. The cytotoxicity result with NPC cells is on record as “not present”. The “amount of cholesterol ester” value in the series on NPC fibroblasts (NPCD cells) and in the series on wild type cells (setting [4]) was “significantly reduced” throughout. The sphingomyelin amount result in the series on NPC fibroblasts (NPCD cells) and in the series with wild type cells (setting [4]) was “not significantly changed” throughout. In addition, the free cholesterol level entry in the series with NPC fibroblasts (NPCD fibroblasts) is listed as “nearly recovered to the normal level as in the wild type cells”; in the series on wild type cells (normal (WT) cells, 5 days) it was “reduced slightly”. Besides, the “size of enlarged lysosomes” value in series [2] and in series [3] was “significantly reduced” in each case.
